Like-named read-outs stand apart in the source and are kept apart here.
Target: T1, LmxCLK1 (Leishmania mexicana, UniProt E9AMP2)
T1 sequence (E9AMP2 1-422): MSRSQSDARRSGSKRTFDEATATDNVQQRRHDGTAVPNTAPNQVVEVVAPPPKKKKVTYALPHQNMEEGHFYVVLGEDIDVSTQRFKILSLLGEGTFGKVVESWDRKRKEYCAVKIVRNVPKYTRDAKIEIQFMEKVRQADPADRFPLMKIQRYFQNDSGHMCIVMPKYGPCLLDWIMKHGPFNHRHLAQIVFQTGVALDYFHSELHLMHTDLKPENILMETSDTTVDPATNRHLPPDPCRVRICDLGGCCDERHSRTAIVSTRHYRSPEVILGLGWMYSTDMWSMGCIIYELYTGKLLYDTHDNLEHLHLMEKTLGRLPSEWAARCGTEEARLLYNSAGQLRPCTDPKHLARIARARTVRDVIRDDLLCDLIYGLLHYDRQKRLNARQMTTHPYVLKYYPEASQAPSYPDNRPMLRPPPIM
Assay: biochemical
Assay type: binding

[1] = DSF, 10 µM compound, 2 µM LmxCLK1, Run 1, read-out: ΔTm Run 1
[2] = DSF, 10 µM compound, 2 µM LmxCLK1, Run 2, read-out: ΔTm Run 2
[3] = DSF, 10 µM compound, 2 µM LmxCLK1, mean of two runs, read-out: ΔTm Average
[4] = DSF, 10 µM compound, 2 µM LmxCLK1, Run 1
[5] = DSF, 10 µM compound, 2 µM LmxCLK1, Run 2
[6] = DSF, 10 µM compound, 2 µM LmxCLK1, mean of two runs

Row | Compound | ΔTm at 10 µM [1] [°C] | ΔTm at 10 µM [2] [°C] | ΔTm at 10 µM [3] [°C] | ΔTm Run 1 [4] [°C] | ΔTm Run 2 [5] [°C] | ΔTm Average [6] [°C] | also measured
1 | Cc1c(CN2CCN(C(=O)[C@H](C)O)CC2)sc2c(N3CCOCC3)nc(-c3cnc(N)nc3)nc12 [GDC-0980 (RG7422)] | 0.1 | -0.1 | 0 |  |  |  | 
2 | COc1cc2nccc(Oc3ccc(NC(=O)Nc4cc(C)on4)c(Cl)c3)c2cc1OC [Tivozanib (AV-951)] | 0.2 | 0 | 0.1 |  |  |  | 
3 | C=CC(=O)N1CCC[C@@H](n2nc(-c3ccc(Oc4ccccc4)cc3)c3c(N)ncnc32)C1 [Ibrutinib (PCI-32765)] |  |  |  | 0.2 | -0.2 | 0.0 | 
4 | CC(C)(C)c1cc(NC(=O)Nc2ccc(-c3cn4c(n3)sc3cc(OCCN5CCOCC5)ccc34)cc2)no1 [Quizartinib (AC220)] | 0.3 | 0.2 | 0.3 |  |  |  | 
5 | Cc1ccc([N+](=O)[O-])cc1S(=O)(=O)N(C)/N=C/c1cnc2ccc(Br)cn12 [PIK-75] |  |  |  |  |  |  | ΔTm Average: 0.3 °C; ΔTm Run 1: 0.5 °C; ΔTm Run 2: 0.1 °C
6 | C[C@@H]1COCCN1c1cc(C2(S(C)(=O)=O)CC2)nc(-c2cccc3[nH]ccc23)n1 [AZ20] |  |  |  |  |  |  | ΔTm Average: -0.3; ΔTm Run 1: -0.2; ΔTm Run 2: -0.5
7 | CCC(=O)Nc1cccc(Oc2nc(Nc3ccc(N4CCN(C)CC4)cc3OC)ncc2Cl)c1 [WZ4003] | 0.1 | -0.1 | 0 |  |  |  | 
8 | FC(F)(F)c1ccc(/C=C/c2nc(COc3ccc(CCCCn4ccnn4)cc3)co2)cc1 [Mubritinib (TAK 165)] |  |  |  |  |  |  | ΔTm Average: 0.2 °C; ΔTm Run 1: 0.4 °C; ΔTm Run 2: 0 °C
9 | CN(C)Cc1cccc(N/C(=C2\C(=O)Nc3cc(C(=O)N(C)C)ccc32)c2ccccc2)c1 [BIX 02189] |  |  |  |  |  |  | ΔTm Average: -0.3; ΔTm Run 1: -0.2; ΔTm Run 2: -0.4
10 | COc1cc(N2CCC(N3CCN(C)CC3)CC2)ccc1Nc1ncc(Cl)c(Nc2ccccc2P(C)(C)=O)n1 [AP26113] | 1.1 | 0.9 | 1 |  |  |  | 
11 | CN1CCC(c2c(O)cc(O)c3c(=O)cc(-c4ccccc4Cl)oc23)C1CO (stereo not drawn) [P276-00] |  |  |  |  |  |  | ΔTm Average: 0.3 °C; ΔTm Run 1: 0.4 °C; ΔTm Run 2: 0.3 °C
12 | CNC(=O)c1cc(Oc2ccc(NC(=O)Nc3cc(C(C)(C)C)nn3-c3ccc4ncccc4c3)c(F)c2)ccn1 [DCC-2036 (Rebastinib)] |  |  |  | -0.2 | -0.4 | -0.3 | 
13 | Cc1cc(Nc2cc(CN3CCOCC3)c3nc(C)c(Cc4ccc(Cl)cc4F)n3n2)n[nH]1 [LY2784544] | -0.3 | -0.4 | -0.4 |  |  |  | 
14 | CS(=O)(=O)c1cccc(CNc2nc(Nc3ccc4c(c3)CCC(=O)N4)ncc2C(F)(F)F)c1 [PF-573228] |  |  |  | 0.1 | -0.3 | -0.1 | 
15 | O=c1cc(N2CCOCC2)oc2c(-c3ccccc3)cccc12 [LY294002] | 0.5 | 0.2 | 0.3 |  |  |  | 
16 | CC(C)CCN1c2nc(Nc3cc(F)c(O)c(F)c3)ncc2N(C)C(=O)C1C (stereo not drawn) [BI-D1870] |  |  |  | 0.4 | 0.0 | 0.2 | 
17 | CNC(=O)CN1CCC(Oc2cc3c(Nc4cccc(Cl)c4F)ncnc3cc2OC)CC1 [AZD8931 (Sapitinib)] |  |  |  | -0.1 | -0.2 | -0.1 | 
18 | CO[C@H]1C[C@@H]2CC[C@@H](C)[C@@](O)(O2)C(=O)C(=O)N2CCCC[C@H]2C(=O)O[C@H]([C@H](C)C[C@@H]2CC[C@@H](OCCO)[C@H](OC)C2)CC(=O)[C@H](C)/C=C(\C)[C@@H](O)[C@@H](OC)C(=O)[C@H](C)C[C@H](C)/C=C/C=C/C=C/1C [Everolimus (RAD001)] |  |  |  | 0.2 | -0.2 | 0.0 | 
19 | CNC(=O)c1nn(C)c2c1C(C)(C)Cc1cnc(Nc3ccc(N4CCN(C)CC4)cc3)nc1-2 [Milciclib (PHA-848125)] |  |  |  | 0.1 | -0.2 | 0.0 | 
20 | CO[C@H]1C[C@@H]2CC[C@@H](C)[C@@](O)(O2)C(=O)C(=O)N2CCCC[C@H]2C(=O)O[C@H]([C@H](C)C[C@@H]2CC[C@H](n3cnnn3)[C@H](OC)C2)CC(=O)[C@H](C)/C=C(\C)[C@@H](O)[C@@H](OC)C(=O)[C@H](C)C[C@H](C)/C=C/C=C/C=C/1C [Zotarolimus(ABT-578)] |  |  |  | 0.2 | 0.0 | 0.1 | 
21 | CC(C)(C)c1cc(C=C(C#N)C#N)cc(Br)c1O [AG-1024] |  |  |  | 0.0 | -0.2 | -0.1 | 
22 | CCN(CC)CCCCNc1ncc2cc(-c3cc(OC)cc(OC)c3)c(NC(=O)NC(C)(C)C)nc2n1 [PD173074] | 0.1 | -0.1 | 0 |  |  |  | 

Row | Compound | ΔTm at 10 µM [1] [°C] | ΔTm at 10 µM [2] [°C] | ΔTm at 10 µM [3] [°C] | ΔTm Run 1 [4] [°C] | ΔTm Run 2 [5] [°C] | ΔTm Average [6] [°C] | also measured
23 | C#Cc1cccc(Nc2ncnc3cc4c(cc23)OCCOCCOCCO4)c1 [Icotinib] | -0.3 | -0.2 | -0.3 |  |  |  | 
24 | CCc1cccc(CC)c1NC(=O)N1Cc2n[nH]c(NC(=O)c3ccc(N4CCN(C)CC4)cc3)c2C1 [PHA-680632] | 0.7 | 0.6 | 0.6 |  |  |  | 
25 | COc1ccc(-c2nc(N3CCOCC3)c3sc(CN(C)c4ncc(C(=O)NO)cn4)cc3n2)cn1 [CUDC-907] | 0.3 | -0.2 | 0 |  |  |  | 
26 | C[C@@H]1CN(CC(=O)Nc2ccc3c(c2)Cc2cccc(-c4cc(=O)cc(N5CCOCC5)o4)c2S3)C[C@H](C)O1 [KU-60019] | -0.1 | -0.2 | -0.1 |  |  |  | 
27 | Cc1cc(O)c2c(c1)C(=O)c1cccc(O)c1C2=O [Chrysophanic Acid] | 0 | -0.2 | -0.1 |  |  |  | 
28 | COc1ccccc1-c1cc(Nc2cccc(CS(N)(=O)=O)c2)ncn1 [LDC000067] |  |  |  | -0.1 | 0.0 | -0.1 | 
29 | Cn1cnc2c(F)c(Nc3ccc(Br)cc3Cl)c(C(=O)NOCCO)cc21 [Selumetinib (AZD6244)] | 0.3 | 0.3 | 0.3 |  |  |  | 
30 | COc1cc2ncnc(Nc3ccc(Cl)cc3F)c2cc1OC [ZM 306416] |  |  |  | 0.2 | 0.0 | 0.1 | 
31 | COc1cc(OC)c(/C=C/S(=O)(=O)Cc2ccc(OC)c(NCC(=O)O)c2)c(OC)c1 [Rigosertib (ON-01910)] |  |  |  | -0.2 | -0.4 | -0.3 | 
32 | CNC(=O)Nc1ccc(-c2nc(N3CC4CCC(C3)O4)c3cnn(C4CCC5(CC4)OCCO5)c3n2)cc1 [WYE-125132 (WYE-132)] |  |  |  | 0.2 | -0.1 | 0.0 | 
33 | CCCCOc1c(C(=O)c2c(F)cc(C)cc2F)c[nH]c2nncc1-2 [BMS-265246] | -0.1 | -0.3 | -0.2 |  |  |  | 
34 | O=C(Cc1ccc(-c2ccc(OCCN3CCOCC3)cc2)cn1)NCc1ccccc1 [KX2-391] |  |  |  |  |  |  | ΔTm Average: 0.1 °C; ΔTm Run 1: 0.2 °C; ΔTm Run 2: 0 °C
35 | COc1cc2c(Nc3ccc(NC(=O)c4ccccc4)cc3)ncnc2cc1OCCCN1CCOCC1 [ZM 447439] |  |  |  | 0.0 | -0.2 | -0.1 | 
36 | CCNC(=O)Nc1ccc(-c2nc3c(c(N4CCOC[C@@H]4C)n2)CCN(C2COC2)C3)cc1 [GDC-0349] | -0.1 | -0.1 | -0.1 |  |  |  | 
37 | CNC(=O)c1cc(COc2nnc(Nc3ccc(Cl)cc3)c3ccoc23)ccn1 [Telatinib] | -0.3 | -0.5 | -0.4 |  |  |  | 
38 | Nc1nccc(Oc2ccc(NC(=O)c3c[nH]cc(-c4ccc(F)cc4)c3=O)cc2F)c1Cl [BMS-794833] | -0.1 | -0.4 | -0.3 |  |  |  | 
39 | CS(=O)(=O)N1CCc2c(-c3cnc(N)nc3)nc(N3CCOCC3)nc21 [CH5132799] | 0.4 | 0.1 | 0.2 |  |  |  | 
40 | Cc1ccc(Nc2nccc(N(C)c3ccc4c(C)n(C)nc4c3)n2)cc1S(N)(=O)=O.Cl [Pazopanib HCl (GW786034 HCl)] |  |  |  | -0.1 | 0.0 | -0.1 | 
41 | Clc1ccc(C2(c3ccc(-c4cn[nH]c4)cc3)CCNCC2)cc1 [AT7867] |  |  |  | 1.2 | 0.7 | 0.9 | 
42 | C[C@]1(O)C[C@@H](c2nc(-c3ccc4ccc(-c5ccccc5)nc4c3)c3c(N)nccn32)C1 [OSI-906 (Linsitinib)] |  |  |  | 0.0 | -0.3 | -0.2 | 
43 | CA75 (GAK) |  |  |  |  |  |  | ΔTm Average: -0.1; ΔTm Run 1: -0.2; ΔTm Run 2: 0 °C
44 | CO[C@H]1C[C@@H]2CC[C@@H](C)[C@@](O)(O2)C(=O)C(=O)N2CCCC[C@H]2C(=O)O[C@H]([C@H](C)C[C@@H]2CC[C@@H](OP(C)(C)=O)[C@H](OC)C2)CC(=O)[C@H](C)/C=C(\C)[C@@H](O)[C@@H](OC)C(=O)[C@H](C)C[C@H](C)/C=C/C=C/C=C/1C [Ridaforolimus (Deforolimus)] |  |  |  | 0.0 | 0.0 | 0.0 | 

From publication PMC7619385 (ACS infectious diseases, 2025)
